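96-well plates; 48 h exposure; 5 concentrations. Endpoints by linear interpolation between flanking doses. Not reached: highest tested concentration assigned. The concentration for 50% growth inhibition is given as GI50.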 Calls of active or inactive are those of the source. No stated cut-off is given here; in the data, active = GI50 up to about 1.1 µM and inactive = higher.
What was measured:
Assay in all cases: DTP human tumour cell line panel, 48 h
[1] = system: SF-539
[2] = system: Hs-578T
[3] = system: SK-MEL-5
[4] = system: HOP-62
[5] = system: UACC-62
[6] = system: U-251
[7] = system: SK-MEL-2
[8] = system: CCRF-CEM
[9] = system: HCT-116
[10] = system: SF-295
[11] = system: KM12
[12] = system: Malme-3M
[13] = system: COLO 205
[14] = system: ACHN
[15] = system: MOLT-4
[16] = system: LOX IMVI
[17] = system: A549
[18] = system: K562
[19] = system: OVCAR-4
[20] = system: HL-60

SMILES | GI50 [1] | GI50 [2] | GI50 [3] | GI50 [4] | GI50 [5] | GI50 [6] | GI50 [7] | GI50 [8] | GI50 [9] | GI50 [10] | GI50 [11] | GI50 [12] | GI50 [13] | GI50 [14] | GI50 [15] | GI50 [16] | GI50 [17] | GI50 [18] | GI50 [19] | GI50 [20]
CCOC(=O)/C=C/[C@H](O[Si](CC)(CC)CC)C(C)(C)C | > 100 µM (inactive) | > 100 µM (inactive) | 45.3 µM (inactive) | 83.6 µM (inactive) | 90.2 µM (inactive) | 27.4 µM (inactive) | 23.2 µM (inactive) | 22.4 µM (inactive) | 51.2 µM (inactive) | 42.4 µM (inactive) | > 100 µM (inactive) | > 100 µM (inactive) | 80.5 µM (inactive) | 28.7 µM (inactive) | 77.1 µM (inactive) | 21.5 µM (inactive) | 35 µM (inactive) | 65.8 µM (inactive) | 48.1 µM (inactive) | –
N#Cc1nc(COCc2ccccc2)oc1N | > 100 µM (inactive) | > 100 µM (inactive) | – | > 100 µM (inactive) | > 100 µM (inactive) | > 100 µM (inactive) | > 100 µM (inactive) | 17.9 µM (inactive) | > 100 µM (inactive) | > 100 µM (inactive) | 58.6 µM (inactive) | 28.7 µM (inactive) | > 100 µM (inactive) | > 100 µM (inactive) | > 100 µM (inactive) | > 100 µM (inactive) | > 100 µM (inactive) | 49.7 µM (inactive) | > 100 µM (inactive) | –
O=C(c1ccccc1)c1ccc2c(c1)nc1n2C(c2c(F)cccc2F)SC1 (configuration not stated) | 28.6 µM (inactive) | 59 µM (inactive) | 12.9 µM (inactive) | 34 µM (inactive) | 15.5 µM (inactive) | 28.8 µM (inactive) | 18.5 µM (inactive) | – | 15 µM (inactive) | 17.9 µM (inactive) | 11.2 µM (inactive) | 31.2 µM (inactive) | 24.1 µM (inactive) | 28.8 µM (inactive) | – | 25.6 µM (inactive) | 22 µM (inactive) | – | 21.7 µM (inactive) | –
COC(=O)[C@H](C)[C@H]1CC[C@@](C)([C@H]2CC3C(C)(C)[C@H]4CCC(C)=C[C@H]4C[C@@]3(C)O2)OO1 (some centres not stated) | 15 µM (inactive) | – | 4.72 µM (inactive) | 19.3 µM (inactive) | 13.6 µM (inactive) | 13 µM (inactive) | 15.4 µM (inactive) | 4.2 µM (inactive) | 10.5 µM (inactive) | 14.7 µM (inactive) | 11.7 µM (inactive) | 14.1 µM (inactive) | 9.66 µM (inactive) | 10.4 µM (inactive) | 7.13 µM (inactive) | 1.6 µM (inactive) | 8.24 µM (inactive) | 6.21 µM (inactive) | 11.9 µM (inactive) | 2.05 µM (inactive)
COc1ccc(CN(CCc2c[nH]c3ccccc23)Cc2ccc(OC)cc2)cc1 | 1.56 µM (inactive) | 16.7 µM (inactive) | 2.77 µM (inactive) | 3.01 µM (inactive) | 2.14 µM (inactive) | 5.81 µM (inactive) | 3.9 µM (inactive) | 6.67 µM (inactive) | 0.83 µM (active) | 1.15 µM (inactive) | 2.67 µM (inactive) | 3.04 µM (inactive) | 2.04 µM (inactive) | 3.37 µM (inactive) | > 21 µM (inactive) | 3.15 µM (inactive) | 3.63 µM (inactive) | 4.75 µM (inactive) | 3.88 µM (inactive) | –
O=C1Nc2ccc(S(=O)(=O)N(CCO)CCO)cc2/C1=C1/Nc2ccccc2C1=O | – | > 100 µM (inactive) | > 100 µM (inactive) | > 100 µM (inactive) | > 100 µM (inactive) | 96.6 µM (inactive) | > 100 µM (inactive) | > 100 µM (inactive) | 51.6 µM (inactive) | > 100 µM (inactive) | 17.7 µM (inactive) | > 100 µM (inactive) | 8.05 µM (inactive) | > 100 µM (inactive) | 62.4 µM (inactive) | > 100 µM (inactive) | > 100 µM (inactive) | > 100 µM (inactive) | 48 µM (inactive) | –
CC(=O)SSC1(Cl)C(C)(C)C(Cl)(SSC(C)=O)C1(C)C (configuration not stated) | 24.5 µM (inactive) | > 100 µM (inactive) | 29.8 µM (inactive) | 44.3 µM (inactive) | 52.6 µM (inactive) | 33.3 µM (inactive) | > 100 µM (inactive) | 24 µM (inactive) | 44 µM (inactive) | 43.5 µM (inactive) | 39.4 µM (inactive) | 84.5 µM (inactive) | > 100 µM (inactive) | 63.4 µM (inactive) | – | 33.3 µM (inactive) | 73.6 µM (inactive) | – | 48.1 µM (inactive) | –
C=C1CCC2C(C)(CO)C(O)CCC2(C)C1C/C=C1/CCOC1=O (configuration not stated) | > 100 µM (inactive) | – | > 100 µM (inactive) | > 100 µM (inactive) | > 100 µM (inactive) | > 100 µM (inactive) | > 100 µM (inactive) | > 100 µM (inactive) | > 100 µM (inactive) | > 100 µM (inactive) | > 100 µM (inactive) | > 100 µM (inactive) | > 100 µM (inactive) | > 100 µM (inactive) | > 100 µM (inactive) | > 100 µM (inactive) | > 100 µM (inactive) | > 100 µM (inactive) | > 100 µM (inactive) | > 100 µM (inactive)
Oc1ncnc2c1sc(=S)n2-c1ccccc1 | > 100 µM (inactive) | – | > 100 µM (inactive) | > 100 µM (inactive) | > 100 µM (inactive) | > 100 µM (inactive) | > 100 µM (inactive) | > 100 µM (inactive) | > 100 µM (inactive) | > 100 µM (inactive) | > 100 µM (inactive) | > 100 µM (inactive) | > 100 µM (inactive) | > 100 µM (inactive) | > 100 µM (inactive) | > 100 µM (inactive) | > 100 µM (inactive) | > 100 µM (inactive) | > 100 µM (inactive) | > 100 µM (inactive)
C/C(=N\c1cccc(Cl)c1)c1ccncc1 | > 100 µM (inactive) | > 100 µM (inactive) | > 100 µM (inactive) | > 100 µM (inactive) | 28.3 µM (inactive) | > 100 µM (inactive) | > 100 µM (inactive) | > 100 µM (inactive) | > 100 µM (inactive) | > 100 µM (inactive) | > 100 µM (inactive) | > 100 µM (inactive) | > 100 µM (inactive) | > 100 µM (inactive) | > 100 µM (inactive) | > 100 µM (inactive) | > 100 µM (inactive) | > 100 µM (inactive) | > 100 µM (inactive) | –
Cc1ccc(C2=Nc3ccccc3SC(c3cccc([N+](=O)[O-])c3)C2)cc1 (configuration not stated) | 3.8 µM (inactive) | 14.3 µM (inactive) | 15.4 µM (inactive) | 27.6 µM (inactive) | > 100 µM (inactive) | 4.59 µM (inactive) | 34 µM (inactive) | – | 3.6 µM (inactive) | 28.4 µM (inactive) | 8.04 µM (inactive) | 26.7 µM (inactive) | 58.7 µM (inactive) | > 100 µM (inactive) | – | – | 26.2 µM (inactive) | 6.56 µM (inactive) | 27.4 µM (inactive) | –
C=C1CC[C@@H]2C(C)(C)CCC[C@@]2(C)[C@@H]1Cc1cc(O)ccc1O | 1.93 µM (inactive) | – | 7.06 µM (inactive) | 9.59 µM (inactive) | 10.4 µM (inactive) | 3.72 µM (inactive) | 2.04 µM (inactive) | 0.558 µM (active) | 4.62 µM (inactive) | 10.2 µM (inactive) | 6.18 µM (inactive) | 5.25 µM (inactive) | 15.9 µM (inactive) | 3.56 µM (inactive) | 0.912 µM (active) | 2.16 µM (inactive) | 5.36 µM (inactive) | 3.44 µM (inactive) | 1.8 µM (inactive) | 1.53 µM (inactive)
COCN1C(=O)[C@@H]2CCCN2C(=O)c2cc(Cl)ccc21 | – | > 100 µM (inactive) | > 100 µM (inactive) | > 100 µM (inactive) | > 100 µM (inactive) | > 100 µM (inactive) | > 100 µM (inactive) | – | > 100 µM (inactive) | > 100 µM (inactive) | > 100 µM (inactive) | > 100 µM (inactive) | > 100 µM (inactive) | > 100 µM (inactive) | > 100 µM (inactive) | > 100 µM (inactive) | > 100 µM (inactive) | > 100 µM (inactive) | > 100 µM (inactive) | –
COc1cc(O)ccc1C(=S)SC | 76.2 µM (inactive) | 24.1 µM (inactive) | 26.5 µM (inactive) | > 100 µM (inactive) | 28.3 µM (inactive) | 54.2 µM (inactive) | > 100 µM (inactive) | – | 80.9 µM (inactive) | 60.3 µM (inactive) | 69.7 µM (inactive) | 39.2 µM (inactive) | > 100 µM (inactive) | 68.2 µM (inactive) | 20.8 µM (inactive) | – | 38.8 µM (inactive) | 52.8 µM (inactive) | 52 µM (inactive) | 23.6 µM (inactive)
CC(NC(NC(C)C12CC3CC(CC(C3)C1)C2)=C(C(Cl)=C(Cl)Cl)[N+](=O)[O-])C12CC3CC(CC(C3)C1)C2 (configuration not stated) | 20.9 µM (inactive) | 3.83 µM (inactive) | 13.2 µM (inactive) | 32.7 µM (inactive) | 30 µM (inactive) | 3.38 µM (inactive) | 15 µM (inactive) | 0.923 µM (active) | 9.04 µM (inactive) | 24.9 µM (inactive) | 47.3 µM (inactive) | 26.7 µM (inactive) | 8.51 µM (inactive) | 28.2 µM (inactive) | 19.5 µM (inactive) | 9.95 µM (inactive) | 6.31 µM (inactive) | 9.08 µM (inactive) | 8.3 µM (inactive) | –

Source: ChEMBL document CHEMBL1201862, “PubChem BioAssay data set” (2004)
